Among the data in paper PMC4828684 (ACS Infectious Diseases, 2016) are Ki, IC50 and Km values, retold here.

Test [1] addresses T1, S. cerevisiae Acs1 (acetyl CoA synthetase) (Saccharomyces cerevisiae, UniProt Q01574).
T1 sequence (Q01574 1-713): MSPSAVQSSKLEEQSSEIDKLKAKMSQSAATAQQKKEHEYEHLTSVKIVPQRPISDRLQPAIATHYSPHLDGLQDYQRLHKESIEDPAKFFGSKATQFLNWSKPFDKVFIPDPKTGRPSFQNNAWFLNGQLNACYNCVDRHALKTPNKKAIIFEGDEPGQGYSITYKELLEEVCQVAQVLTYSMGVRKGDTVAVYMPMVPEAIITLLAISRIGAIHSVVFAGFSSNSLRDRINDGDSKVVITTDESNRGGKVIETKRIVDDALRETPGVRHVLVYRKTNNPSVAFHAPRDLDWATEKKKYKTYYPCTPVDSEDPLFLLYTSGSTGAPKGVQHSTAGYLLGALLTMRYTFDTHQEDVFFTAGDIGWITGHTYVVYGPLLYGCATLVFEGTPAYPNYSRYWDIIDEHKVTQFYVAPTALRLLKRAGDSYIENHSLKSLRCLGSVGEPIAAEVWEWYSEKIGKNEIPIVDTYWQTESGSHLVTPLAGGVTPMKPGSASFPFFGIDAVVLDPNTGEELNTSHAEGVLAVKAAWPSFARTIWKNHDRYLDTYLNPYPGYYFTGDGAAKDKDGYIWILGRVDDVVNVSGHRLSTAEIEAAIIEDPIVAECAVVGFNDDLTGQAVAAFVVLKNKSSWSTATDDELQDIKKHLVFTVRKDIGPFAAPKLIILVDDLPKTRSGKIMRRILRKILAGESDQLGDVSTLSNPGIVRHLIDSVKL
Put plainly: hydroxylamine-coupled. Format: biochemical.

The target of test [2] is T2, human ACCS2 (ACSS2, acetyl CoA synthetase) (Homo sapiens, UniProt Q9NR19). Put plainly: biochemical.
T2 sequence (Q9NR19 whole entry): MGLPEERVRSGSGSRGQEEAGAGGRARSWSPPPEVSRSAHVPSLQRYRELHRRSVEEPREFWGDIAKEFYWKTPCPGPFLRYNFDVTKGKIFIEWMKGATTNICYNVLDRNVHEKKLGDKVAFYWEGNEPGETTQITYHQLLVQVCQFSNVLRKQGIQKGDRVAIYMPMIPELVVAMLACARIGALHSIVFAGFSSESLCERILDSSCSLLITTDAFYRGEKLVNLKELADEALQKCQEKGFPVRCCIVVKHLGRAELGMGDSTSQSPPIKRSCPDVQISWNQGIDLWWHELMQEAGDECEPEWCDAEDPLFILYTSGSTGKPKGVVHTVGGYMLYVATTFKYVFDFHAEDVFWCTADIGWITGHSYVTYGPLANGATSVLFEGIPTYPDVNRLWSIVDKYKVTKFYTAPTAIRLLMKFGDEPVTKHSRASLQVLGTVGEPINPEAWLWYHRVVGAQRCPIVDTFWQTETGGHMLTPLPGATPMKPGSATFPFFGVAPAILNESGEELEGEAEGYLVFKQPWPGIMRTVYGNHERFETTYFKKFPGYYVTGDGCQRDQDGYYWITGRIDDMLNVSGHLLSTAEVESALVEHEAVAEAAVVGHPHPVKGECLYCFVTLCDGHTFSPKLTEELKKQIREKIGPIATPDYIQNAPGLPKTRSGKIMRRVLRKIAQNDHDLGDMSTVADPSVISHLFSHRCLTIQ
In test [3] the target is T1, S. cerevisiae Acs1 (acetyl CoA synthetase). Put plainly: Km determination in hydroxamic acid enzyme assay. Type of test: biochemical.
Test [4] deals with T2, human ACCS2 (ACSS2, acetyl CoA synthetase).

What is called Ki is a measure of affinity in units of concentration, obtained from inhibition or displacement. A lower Ki goes with tighter binding. A word on the IC50: it is the concentration at which inhibition is half-maximal. Low values mean higher potency, high ones lower potency. A word on the Km: it is the substrate concentration at which the rate is half of its maximum.

As for `NCC(=O)Nc1ccc(-n2nc(C(F)(F)F)cc2-c2ccc3c(ccc4ccccc43)c2)cc1` [AR-12], the Ki in test [1] is approximately 2700 nM. The IC50 in test [2] was less than 100000 nM.

On to `Nc1ncnc2c1ncn2[C@@H]1O[C@H](COP(=O)(O)OP(=O)(O)OP(=O)(O)O)[C@@H](O)[C@H]1O` [ATP], for which the Km in test [3] and in test [4] was 900 to 1000 µM throughout.
